The values that follow come from article doi:10.1101/2023.10.01.560353v1 (bioRxiv, 2023).

≈ marks a conversion by molar mass, not a printed value. Peptide text beside a SMILES is read from it.

The test system of this experiment is 11 clinically relevant bacterial pathogens. Put plainly: MIC over the panel of pathogens. Format: cell-based. The settings on record: Table S17; lowest MIC over the strains tested.
As for `CC[C@H](C)[C@H](NC(=O)[C@H](Cc1ccccc1)NC(=O)[C@@H](N)CC(C)C)C(=O)NCC(=O)N[C@@H](CC(C)C)C(=O)N[C@H](C(=O)N[C@@H](CC(N)=O)C(=O)N[C@@H](CC(C)C)C(=O)N[C@@H](CC(C)C)C(=O)NCC(=O)N[C@@H](CC(C)C)C(=O)N[C@@H](CC(C)C)C(=O)O)[C@@H](C)O` [Mammuthusin-4] (H-LFIGLTNLLGLL-OH), the “MIC (lowest MIC value obtained in the antimicrobial activity assays)” value (“MIC” for short) amounted to 2000 mM (≈ 2570 mg/mL).

Regarding `CC[C@H](C)[C@H](NC(=O)[C@H](CCCCN)NC(=O)[C@@H](NC(=O)[C@H](Cc1c[nH]c2ccccc12)NC(=O)[C@@H](N)CCCCN)[C@@H](C)O)C(=O)N[C@@H](Cc1ccc(O)cc1)C(=O)N[C@@H](CC(C)C)C(=O)N1CCC[C@H]1C(=O)N[C@@H](CC(C)C)C(=O)N[C@@H](CC(C)C)C(=O)N[C@@H](CC(C)C)C(=O)N1CCC[C@H]1C(=O)N[C@@H](CC(C)C)C(=O)O` [Bisonin-2] (H-KWTKIYLPLLLPL-OH), the “MIC” value turned out to be 8000 mM (≈ 12800 mg/mL). Regarding `CC[C@H](C)[C@H](NC(=O)[C@H](CCCCN)NC(=O)[C@H](CC(C)C)NC(=O)[C@@H](NC(=O)[C@@H](N)CCCCN)[C@@H](C)O)C(=O)N[C@H](C(=O)N[C@@H](CCCNC(=N)N)C(=O)N[C@@H](CC(C)C)C(=O)N[C@@H](CC(C)C)C(=O)N[C@@H](Cc1ccccc1)C(=O)O)[C@@H](C)CC` [Mammuthusin-3] (H-KTLKIIRLLF-OH), the “MIC” value was 16000 mM (≈ 19900 mg/mL). In the case of `CC[C@H](C)[C@H](NC(=O)[C@H](Cc1ccc(O)cc1)NC(=O)[C@H](C)NC(=O)[C@@H](N)CCCNC(=N)N)C(=O)N[C@@H](CS)C(=O)N[C@@H](CCCNC(=N)N)C(=O)N[C@@H](CCCCN)C(=O)N[C@@H](CCCCN)C(=O)N[C@@H](Cc1ccccc1)C(=O)N[C@@H](CC(C)C)C(=O)N[C@@H](CO)C(=O)N[C@@H](CC(C)C)C(=O)N[C@@H](CCCNC(=N)N)C(=O)N[C@@H](CCCCN)C(=O)N[C@@H](C)C(=O)N[C@@H](CO)C(=O)N[C@H](C(=O)N[C@@H](CCCCN)C(=O)N[C@@H](CC(C)C)C(=O)N[C@@H](CCC(N)=O)C(=O)N[C@@H](CO)C(=O)N[C@@H](CC(C)C)C(=O)N[C@H](C(=O)N[C@@H](CCCNC(=N)N)C(=O)N[C@@H](CCSC)C(=O)N[C@@H](CCCCN)C(=O)O)C(C)C)[C@@H](C)CC` [Equusin-2] (H-RAYICRKKFLSLRKASIKLQSLVRMK-OH) it was 8000 mM (≈ 25100 mg/mL); in that of `CC[C@H](C)[C@H](N)C(=O)N[C@H](C(=O)NCC(=O)N[C@@H](CC(N)=O)C(=O)N[C@H](C(=O)N[C@@H](Cc1ccccc1)C(=O)NCC(=O)N[C@@H](Cc1ccccc1)C(=O)N[C@@H](CCCCN)C(=O)N[C@@H](C)C(=O)N[C@@H](CC(C)C)C(=O)N[C@@H](CCCNC(=N)N)C(=O)N[C@@H](C)C(=O)N[C@@H](CC(C)C)C(=O)N[C@@H](CCCNC(=N)N)C(=O)N[C@@H](CC(C)C)C(=O)O)C(C)C)C(C)C` [Hesperelin-4] (H-IVGNVFGFKALRALRL-OH), 64000 mM (≈ 114000 mg/mL); in that of `CC[C@H](C)[C@H](NC(=O)[C@@H](N)[C@@H](C)O)C(=O)N[C@@H](CCCCN)C(=O)N[C@@H](CC(C)C)C(=O)N[C@@H](Cc1ccccc1)C(=O)N[C@@H](CC(C)C)C(=O)N[C@@H](CO)C(=O)N[C@@H](Cc1ccccc1)C(=O)N[C@@H](CCCCN)C(=O)N[C@@H](CC(C)C)C(=O)O` [Xenothrixin-1] (H-TIKLFLSFKL-OH), 8000 mM (≈ 9680 mg/mL).

Take `CC[C@H](C)[C@H](NC(=O)[C@@H](NC(=O)[C@H](Cc1c[nH]c2ccccc12)NC(=O)[C@H](CCCCN)NC(=O)[C@@H](N)CCCCN)C(C)C)C(=O)N[C@@H](CCCCN)C(=O)N[C@@H](CO)C(=O)N[C@H](C(=O)N[C@H](C(=O)N[C@@H](Cc1ccccc1)C(=O)N[C@@H](Cc1ccccc1)C(=O)N[C@@H](CCCCN)C(=O)O)C(C)C)C(C)C` [Hesperelin-2] (H-KKWVIKSVVFFK-OH): the “MIC” value was 8000 mM (≈ 12100 mg/mL).
